Literature values in patent publication US20220047856A1, “HYDROGEL FOR IN-VIVO DIRECTIONAL RELEASE OF MEDICATION” (UMC Utrecht Holding B.V., priority 2018, published 2022).

Settings: local anaesthetic, conventional bupivacaine

Structure (SMILES): CCCCN1CCCCC1C(=O)Nc1c(C)cccc1C (stereo not shown) [Bupi, Bupivacaine]
- duration of its effect: approx. 8 hours
